In article PMC4268243 (Nuclear medicine and biology, 2014):

How the values were obtained:
[1] = system: U87 glioblastoma cells; experiment: Amino acid uptake and inhibition in U87 cells; format: cell-based, human; conditions: for Cell uptake: U87, 30 minutes incubation
[2] = system: U87 tumor xenograft; experiment: Biodistribution in U87 tumor-bearing SCID mice; format: in vivo; conditions: listed as (R)-[^18F] FAMP 1
[3] = system: SCID mice xenograft tumor models; format: in vivo; conditions: in most cases, over tumors and time points
[4] = system: SKOV3 tumor xenograft; experiment: Biodistribution in SKOV3 tumor-bearing SCID mice; format: in vivo; conditions: listed as (R)-[^18F] FAMP 1
[5] = system: MDA MB468 tumor xenograft; experiment: Biodistribution in MDA MB468 tumor-bearing SCID mice; format: in vivo
[6] = system: rat orthotopic brain tumor model; conditions: rat orthotopic brain tumor model, 60 min; cited from earlier work
[7] = system: MDA MB468 estrogen-independent breast carcinoma cells; experiment: Amino acid uptake and inhibition in MDA MB468 cells; format: cell-based, human; conditions: MDA MB468, 30 minutes incubation
[8] = system: A549 lung adenocarcinoma cells; experiment: Amino acid uptake and inhibition in A549 cells; format: cell-based, human; conditions: A549, 30 minutes incubation
[9] = 15 min post injection, listed as (R)-[^18F] FAMP 1
[10] = 30 min post injection, listed as (R)-[^18F] FAMP 1
[11] = 60 min post injection, listed as (R)-[^18F] FAMP 1
[12] = 120 min post injection, listed as (R)-[^18F] FAMP 1

Molecule `CC(N)(C[18F])C(=O)O` [(R)-[^18F]1] [2-amino-3-[^18F]fluoro-2-methylpropanoic acid] has a Cell uptake ([1]; 10 mM BCH) of 4.8±0.3 % ID/5×10^5 cells, a Cell uptake ([1]; 10 mM MeAIB) of 2.0±0.3 % ID/5×10^5 cells and a Cell uptake ([1]; Control (no inhibitor)) of 6.0±0.3 % ID/5×10^5 cells. For the same molecule, the “inhibition of uptake by BCH” value ([1]; U87 cells, 10 mM BCH, relative to control) was 20%, the “inhibition of uptake by MeAIB” value ([1]; U87 cells, 10 mM MeAIB, relative to control) was 67% and the uptake in blood ([2]; 15 min post injection) was 3.2±0.2 %ID/g. For the same molecule, the uptake in bone ([2]; 15 min post injection) was 3.2±1.5 %ID/g, the uptake in brain ([2]; 15 min post injection) was 0.8±0.2 %ID/g and the uptake in heart ([2]; 15 min post injection) was 4.7±1.2 %ID/g. It also gave an uptake in kidney ([2]; 15 min post injection) of 23±2.5 %ID/g, an uptake in liver ([2]; 15 min post injection) of 7.6±2.9 %ID/g and an uptake in lung ([2]; 15 min post injection) of 4.7±0.6 %ID/g. For the same molecule, the uptake in muscle ([2]; 15 min post injection) was 2.2±0.5 %ID/g, the uptake in pancreas ([2]; 15 min post injection) was 62±6.3 %ID/g and the uptake in spleen ([2]; 15 min post injection) was 19±6.4 %ID/g. The uptake in tumor ([2]; 15 min post injection) was 6.5±1.2 %ID/g, the uptake in blood ([2]; 30 min post injection) was 2.6±0.7 %ID/g and the uptake in bone ([2]; 30 min post injection) was 3.5±0.5 %ID/g. The uptake in brain ([2]; 30 min post injection) was 0.9±0.2 %ID/g, the uptake in heart ([2]; 30 min post injection) was 4.3±0.6 %ID/g and the uptake in kidney ([2]; 30 min post injection) was 15±2.1 %ID/g. The uptake in liver ([2]; 30 min post injection) was 7.7±1.5 %ID/g, the uptake in lung ([2]; 30 min post injection) was 3.4±0.5 %ID/g and the uptake in muscle ([2]; 30 min post injection) was 2.2±0.5 %ID/g. For the same molecule, the uptake in pancreas ([2]; 30 min post injection) was 43±8.2 %ID/g, the uptake in spleen ([2]; 30 min post injection) was 13±2.4 %ID/g and the uptake in tumor ([2]; 30 min post injection) was 6.0±0.9 %ID/g. It also gave an uptake in blood ([2]; 60 min post injection) of 1.6±0.4 %ID/g, an uptake in bone ([2]; 60 min post injection) of 3.2±0.8 %ID/g and an uptake in brain ([2]; 60 min post injection) of 1.2±0.2 %ID/g. For the same molecule, the uptake in heart ([2]; 60 min post injection) was 4.2±0.9 %ID/g, the uptake in kidney ([2]; 60 min post injection) was 8.0±1.8 %ID/g and the uptake in liver ([2]; 60 min post injection) was 6.9±1.4 %ID/g. The uptake in lung ([2]; 60 min post injection) was 2.4±0.6 %ID/g, the uptake in muscle ([2]; 60 min post injection) was 2.9±0.6 %ID/g and the uptake in pancreas ([2]; 60 min post injection) was 28±5.0 %ID/g. For the same molecule, the uptake in spleen ([2]; 60 min post injection) was 7.0±1.4 %ID/g, the uptake in tumor ([2]; 60 min post injection) was 4.2±0.3 %ID/g and the uptake in blood ([2]; 120 min post injection) was 0.8±0.1 %ID/g. The uptake in bone ([2]; 120 min post injection) was 1.5±0.2 %ID/g, the uptake in brain ([2]; 120 min post injection) was 1.2±0.1 %ID/g and the uptake in heart ([2]; 120 min post injection) was 3.6±0.4 %ID/g. The uptake in kidney ([2]; 120 min post injection) was 4.2±0.4 %ID/g, the uptake in liver ([2]; 120 min post injection) was 8.0±0.7 %ID/g and the uptake in lung ([2]; 120 min post injection) was 1.3±0.2 %ID/g. The uptake in muscle ([2]; 120 min post injection) was 1.6±0.2 %ID/g, the uptake in pancreas ([2]; 120 min post injection) was 15.1±3.2 %ID/g and the uptake in spleen ([2]; 120 min post injection) was 3.5±0.4 %ID/g. The uptake in tumor ([2]; 120 min post injection) was 3.1±0.8 %ID/g, the “ratio of tumor to muscle” value [3] was “above 2.5” and the uptake in bone ([4]; 15 min post injection) was 2.6±1.0 %ID/g. For the same molecule, the uptake in brain ([4]; 15 min post injection) was 0.7±0.4 %ID/g, the uptake in heart ([4]; 15 min post injection) was 4.0±2.1 %ID/g and the uptake in kidney ([4]; 15 min post injection) was 17±4.5 %ID/g. It also gave an uptake in liver ([4]; 15 min post injection) of 4.6±2.5 %ID/g, an uptake in lung ([4]; 15 min post injection) of 3.9±1.3 %ID/g and an uptake in muscle ([4]; 15 min post injection) of 2.3±1.1 %ID/g. The uptake in pancreas ([4]; 15 min post injection) was 38±18 %ID/g, the uptake in spleen ([4]; 15 min post injection) was 8.7±3.4 %ID/g and the uptake in tumor ([4]; 15 min post injection) was 10±4.8 %ID/g. The uptake in blood ([4]; 30 min post injection) was 2.7±0.3 %ID/g, the uptake in bone ([4]; 30 min post injection) was 2.8±0.7 %ID/g and the uptake in brain ([4]; 30 min post injection) was 1.0±0.04 %ID/g. The uptake in heart ([4]; 30 min post injection) was 4.9±0.1 %ID/g, the uptake in kidney ([4]; 30 min post injection) was 14±2.6 %ID/g and the uptake in liver ([4]; 30 min post injection) was 5.0±0.7 %ID/g. For the same molecule, the uptake in lung ([4]; 30 min post injection) was 3.1±0.3 %ID/g, the uptake in muscle ([4]; 30 min post injection) was 2.8±0.3 %ID/g and the uptake in pancreas ([4]; 30 min post injection) was 41±7.4 %ID/g. It also gave an uptake in spleen ([4]; 30 min post injection) of 13±3.6 %ID/g, an uptake in tumor ([4]; 30 min post injection) of 14±1.1 %ID/g and an uptake in blood ([4]; 60 min post injection) of 2.1±0.1 %ID/g. It also gave an uptake in bone ([4]; 60 min post injection) of 2.3±0.3 %ID/g, an uptake in brain ([4]; 60 min post injection) of 1.0±0.3 %ID/g and an uptake in heart ([4]; 60 min post injection) of 4.9±1.1 %ID/g. The uptake in kidney ([4]; 60 min post injection) was 10±0.8 %ID/g, the uptake in liver ([4]; 60 min post injection) was 4.5±0.3 %ID/g and the uptake in lung ([4]; 60 min post injection) was 2.5±0.3 %ID/g. It also gave an uptake in muscle ([4]; 60 min post injection) of 2.6±0.6 %ID/g, an uptake in pancreas ([4]; 60 min post injection) of 34±4.7 %ID/g and an uptake in spleen ([4]; 60 min post injection) of 6.8±1.0 %ID/g. The uptake in tumor ([4]; 60 min post injection) was 9.0±2.2 %ID/g, the uptake in blood ([4]; 120 min post injection) was 1.5±0.2 %ID/g and the uptake in bone ([4]; 120 min post injection) was 1.9±0.4 %ID/g. For the same molecule, the uptake in brain ([4]; 120 min post injection) was 1.2±0.2 %ID/g, the uptake in heart ([4]; 120 min post injection) was 3.6±0.6 %ID/g and the uptake in kidney ([4]; 120 min post injection) was 7.0±0.8 %ID/g. For the same molecule, the uptake in liver ([4]; 120 min post injection) was 2.7±0.5 %ID/g, the uptake in lung ([4]; 120 min post injection) was 1.8±0.3 %ID/g and the uptake in muscle ([4]; 120 min post injection) was 2.0±0.4 %ID/g. The uptake in pancreas ([4]; 120 min post injection) was 19±2.4 %ID/g, the uptake in spleen ([4]; 120 min post injection) was 4.5±1.1 %ID/g and the uptake in tumor ([4]; 120 min post injection) was 6.2±0.5 %ID/g. It also gave an uptake in blood [5, 9] of 3.0±0.2 %ID/g, an uptake in bone [5, 9] of 2.7±0.6 %ID/g and an uptake in brain [5, 9] of 0.7±0.2 %ID/g. For the same molecule, the uptake in heart [5, 9] was 3.9±0.6 %ID/g, the uptake in kidney [5, 9] was 17±2.3 %ID/g and the uptake in liver [5, 9] was 4.4±0.9 %ID/g. For the same molecule, the uptake in lung [5, 9] was 5.4±0.6 %ID/g, the uptake in muscle [5, 9] was 2.2±0.8 %ID/g and the uptake in pancreas [5, 9] was 61±8.4 %ID/g. The uptake in spleen [5, 9] was 8.7±2.2 %ID/g, the uptake in tumor [5, 9] was 6.0±1.8 %ID/g and the uptake in blood [5, 10] was 2.0±0.4 %ID/g. The uptake in bone [5, 10] was 2.2±0.6 %ID/g, the uptake in brain [5, 10] was 0.8±0.1 %ID/g and the uptake in heart [5, 10] was 3.5±1.0 %ID/g. It also gave an uptake in kidney [5, 10] of 9.1±2.8 %ID/g, an uptake in liver [5, 10] of 4.5±1.0 %ID/g and an uptake in lung [5, 10] of 3.3±1.1 %ID/g. The uptake in muscle [5, 10] was 2.0±0.6 %ID/g, the uptake in pancreas [5, 10] was 39±11 %ID/g and the uptake in spleen [5, 10] was 6.5±1.1 %ID/g. It also gave an uptake in tumor [5, 10] of 5.3±1.7 %ID/g, an uptake in tumor ([5]; 60 min post injection) of 4.8±1.2 %ID/g and an uptake in blood [5, 11] of 1.1±0.3 %ID/g. For the same molecule, the uptake in bone [5, 11] was 1.7±0.5 %ID/g, the uptake in brain [5, 11] was 0.8±0.1 %ID/g and the uptake in heart [5, 11] was 3.3±0.8 %ID/g. It also gave an uptake in kidney [5, 11] of 5.0±1.1 %ID/g, an uptake in liver [5, 11] of 3.8±0.9 %ID/g and an uptake in lung [5, 11] of 2.2±0.5 %ID/g. For the same molecule, the uptake in muscle [5, 11] was 2.0±0.6 %ID/g, the uptake in pancreas [5, 11] was 20±7.2 %ID/g and the uptake in spleen [5, 11] was 4.1±1.3 %ID/g. The uptake in blood [5, 12] was 0.5±0.2 %ID/g, the uptake in bone [5, 12] was 1.1±0.5 %ID/g and the uptake in brain [5, 12] was 0.9±0.1 %ID/g. The uptake in heart [5, 12] was 2.3±0.4 %ID/g, the uptake in kidney [5, 12] was 2.4±1.1 %ID/g and the uptake in liver [5, 12] was 4.1±0.8 %ID/g. For the same molecule, the uptake in lung [5, 12] was 1.1±0.4 %ID/g, the uptake in muscle [5, 12] was 1.6±0.6 %ID/g and the uptake in pancreas [5, 12] was 11±4.6 %ID/g. The uptake in spleen [5, 12] was 2.2±1.1 %ID/g, the uptake in tumor [5, 12] was 3.6±0.7 %ID/g and the brain uptake [6] was 0.1±0.02 %ID/g. The Cell uptake ([7]; 10 mM BCH) was 3.0±0.4 % ID/5×10^5 cells, the Cell uptake ([7]; 10 mM MeAIB) was 4.4±0.2 % ID/5×10^5 cells and the Cell uptake ([7]; Control (no inhibitor)) was 5.7±0.3 % ID/5×10^5 cells. The Cell uptake ([8]; 10 mM BCH) was 2.3±0.3 % ID/5×10^5 cells, the Cell uptake ([8]; 10 mM MeAIB) was 4.6±0.5 % ID/5×10^5 cells and the Cell uptake ([8]; Control (no inhibitor)) was 5.1±0.3 % ID/5×10^5 cells.
